Where a name gives a salt, the structure may show the parent alone.

The first assay deals with HMOX1. The assay can be described thus: HMOX1 Protein Assay (immunostaining of HO-1 in NHLF cells, GE InCell 1000). The class given is cell-based. The conditions noted are these: Homo sapiens, fold change above DMSO treated cells, 3 μM compound (asterisk), 16 h. As for the experimental part: Cell Culture. Normal Human Fibroblast (NHLF), were obtained from Lonza. Cultures of cells were maintained in Fibroblast Growth Medium (FGM-2) medium supplemented with 2% fetal bovine serum (FBS), Fibroblast Growth Factor (hFGF-B) 0.5 mL, Insulin 0.5 mL, gentamicin/amphotericin-B 0.5 mL at 37° C. in a humidified atmosphere of 5% CO2. Cells were grown to 80% confluence before treating.
HMOX1 Protein Assay. NHLF cells were grown to 80% confluency and harvested by washing once with HEPES and then trypsinized. Equal numbers (2×10^3 cells per well) of NHLF cells were plated in 384 well optilux tissue culture (BD) plates. Cells were incubated overnight in FGM-2 medium prior to exposure to compound. Cells were treated with either vehicle (DMSO) or compound (dissolved in vehicle) for 16 h. Cells were washed 2× with 1×PBS and fixed with 4% Paraformaldyhyde for 15 min. The fixed cells were then permeabalized with 0.1% Triton X-100 and blocked with 5% BSA in 1×PBS 0.05% Tween-20 for 15 min. HO-1 antibody (abcam) was used for immunostaining at 1:300 dilution in 1% BSA in 1×PBS for 1 hour. Cells were washed 2× with 1×PBS and secondary antibody goat anti-mouse Alexa 488 1:400 dilution (Invitrogen); Hoechst 1:2000 (Invitrogen) in 1% BSA in 1×PBS for 1 hour. Plate was washed 5× with 1×PBS and read at Hoechst Ex.360 […]; Alexa 488 Ex.480 Em. 535 using GE InCell 1000. Results analyzed using GE InCell Analyzer software. Heme oxygenase data represents the fold change above DMSO treated cells.
In general, the fold induction data are reported for 5 μM concentration (i.e., μ-moles of compound to total volume, where the solvent is about 99.2% media and 0.8% DMSO). In some instances, the reported data are for 3 μM concentration, which are indicated by an asterisk (*).
As for `CN(C)C(=O)CCNC(=O)c1ccc2c(c1)nc(Nc1nc3ccc(C(F)(F)F)cc3s1)n2C` [Example 372, 1-Methyl-2-(6-trifluoromethyl-benzothiazol-2-ylamino)-1H-benzoimidazole-5-carboxylic acid (2-dimethylcarbamoyl-ethyl)-amide], the fold induction (as a rule, the ratio of treated to control signal) at 3 µM was 25.5.

With `Cn1c(Nc2nc3ccc(Cl)cc3s2)nc2cc(C(=O)NCCF)ccc21` [Example 209, 2-(6-Chloro-benzothiazol-2-ylamino)-1-methyl-1H-benzoimidazole-5-carboxylic acid (2-fluoro-ethyl)-amide], the fold induction at 3 µM came out at 14.2.

`CCN(CC)CCCNC(=O)c1ccc2c(c1)nc(Nc1nc3ccc(OC(F)(F)F)cc3s1)n2C` [Example 351, 1-Methyl-2-(6-trifluoromethoxy-benzothiazol-2-ylamino)-1H-benzoimidazole-5-carboxylic acid (3-diethylamino-propyl)-amide] yielded a fold induction at 3 µM of 25.

Regarding `CN1CCN(C(=O)CCNC(=O)c2ccc3c(c2)nc(Nc2nc4ccc(C(F)(F)F)cc4s2)n3C)CC1` [Example 375, 1-Methyl-2-(6-trifluoromethyl-benzothiazol-2-ylamino)-1H-benzoimidazole-5-carboxylic acid [3-(4-methyl-piperazin-1-yl)-3-oxo-propyl]-amide], the fold induction at 3 µM is 19.4.

The same assay, now with this note: Homo sapiens, fold change above DMSO treated cells, 5 μM compound, 16 h.
As to `COCCNC(=O)c1ccc2c(c1)nc(Nc1nc3ccc(C)cc3s1)n2C` [Example 129, 2-(6-Methyl-benzothiazol-2-ylamino)-1-methyl-1H-benzimidazole-5-carboxylic acid (2-methoxy-ethyl)-amide], the fold induction at 5 µM was 31.

With `C[C@H](NC(=O)c1ccc2c(c1)nc(Nc1nc3ccc(OC(F)(F)F)cc3s1)n2C)C(=O)O` [Example 146, (S)-2-{[1-Methyl-2-(6-trifluoromethoxy-benzothiazol-2-ylamino)-1H-benzoimidazole-5-carbonyl]-amino}-propionic acid], the fold induction at 5 µM was found to be 3.7.

In turn, `CNC(=O)c1ccc2c(c1)nc(Nc1nc3ccc(OC(F)(F)F)cc3s1)n2CCF` [Example 170, 1-(2-Fluoro-ethyl)-2-(6-trifluoromethoxy-benzothiazol-2-ylamino)-1H-benzoimidazole-5-carboxylic acid methylamide] came in with a fold induction at 5 µM of 23.

In turn, `Cn1c(Nc2nc3ccc(OC(F)(F)F)cc3s2)nc2cc(C(=O)NCCN3CCOCC3)ccc21` [Example 43, 1-Methyl-2-(6-trifluoromethoxy-benzothiazol-2-ylamino)-1H-benzoimidazole-5-carboxylic acid (2-morpholin-4-yl-ethyl)-amide] had a fold induction at 5 µM of 29.6.

In turn, `CCNC(=O)c1cc2nc(Nc3nc4ccc(OC(F)(F)F)cc4s3)n(C)c2cc1F` [Example 42, 6-Fluoro-1-methyl-2-(6-trifluoromethoxy-benzothiazol-2-ylamino)-1H-benzoimidazole-5-carboxylic acid ethylamide] yielded a fold induction at 5 µM of 34.7.

Consider `COCCn1c(Nc2nc3ccc(OC(F)(F)F)cc3s2)nc2cc(C(=O)NCC(=O)N(C)C)ccc21` [Example 188, 1-(2-Methoxy-ethyl)-2-(6-trifluoromethoxy-benzothiazol-2-ylamino)-1H-benzoimidazole-5-carboxylic acid dimethylcarbamoylmethyl-amide], for which the fold induction at 5 µM came out at 18.3.

In turn, `Cn1c(Nc2nc3ccc(OC(F)(F)F)cc3s2)nc2cc(C(=O)NCC(=O)N3CCC(Oc4ncccn4)CC3)ccc21` [Example 452, 1-Methyl-2-(6-trifluoromethoxy-benzothiazol-2-ylamino)-1H-benzoimidazole-5-carboxylic acid {2-oxo-2-[4-(pyrimidin-2-yloxy)-piperidin-1-yl]-ethyl}-amide] returned a fold induction at 5 µM of 71.7.

In turn, `Cn1c(Nc2nc3ccc(Cl)cc3s2)nc2cc(C(=O)N[C@H]3CCN(CCO)C3)ccc21` [Example 293, 2-(6-Chloro-benzothiazol-2-ylamino)-1-methyl-1H-benzoimidazole-5-carboxylic acid [(S)-1-(2-hydroxy-ethyl)-pyrrolidin-3-yl]amide] displayed a fold induction at 5 µM of 29.4.

`CC(C)n1c(Nc2nc3ccc(OC(F)(F)F)cc3s2)nc2cc(C(=O)O)ccc21` [Example 159, 1-Isopropyl-2-(6-trifluoromethoxy-benzothiazol-2-ylamino)-1H-benzoimidazole-5-carboxylic acid] returned a fold induction at 5 µM of 26.7.

In the case of `Cn1c(Nc2nc3ccc(OC(F)(F)F)cc3s2)nc2cc(C(=O)O)ccc21` [Example 3, 1-Methyl-2-(6-trifluoromethoxy-benzothiazol-2-ylamino)-1H-benzoimidazole-5-carboxylic acid], the fold induction at 5 µM was 12.5.

Consider `COC(=O)c1ccc2c(c1)nc(Nc1nc3ccc(Cl)cc3s1)n2C` [Example 28, 2-(6-Chloro-benzothiazol-2-ylamino)-1-methyl-1H-benzoimidazole-5-carboxylic acid methyl ester], for which the fold induction at 5 µM was found to be 10.1.

For `Cn1c(Nc2nc3ccc(OC(F)(F)F)cc3s2)nc2cc(C(=O)NCCOCC(N)=O)ccc21` [Example 267, 1-Methyl-2-(6-trifluoromethoxy-benzothiazol-2-ylamino)-1H-benzoimidazole-5-carboxylic acid (2-carbamoylmethoxy-ethyl)-amide], the fold induction at 5 µM is 58.8.

With `CN1CCN(C(=O)CNC(=O)c2ccc3c(c2)nc(Nc2nc4ccc(Cl)cc4s2)n3C)CC1` [Example 426, 2-(6-Chloro-benzothiazol-2-ylamino)-1-methyl-1H-benzoimidazole-5-carboxylic acid [2-(4-methyl-piperazin-1-yl)-2-oxo-ethyl]-amide], the fold induction at 5 µM amounted to 25.1.

As to `CN1CCN(C(=O)CCCNC(=O)c2ccc3c(c2)nc(Nc2nc4ccc(Cl)cc4s2)n3C)CC1` [Example 377, 2-(6-Chloro-benzothiazol-2-ylamino)-1-methyl-1H-benzoimidazole-5-carboxylic acid [4-(4-methyl-piperazin-1-yl)-4-oxo-butyl]-amide], the fold induction at 5 µM stood at 20.3.

Compound `CCN(CC)c1cc2c(cc1C(=O)OC)nc(Nc1nc3ccc(OC(F)(F)F)cc3s1)n2C` [Example 69, 6-Diethylamino-1-methyl-2-(6-trifluoromethoxy-benzothiazol-2-ylamino)-1H-benzoimidazole-5-carboxylic acid methyl ester] returned a fold induction at 5 µM of 4.7.

As to `Cn1c(Nc2nc3ccc(OC(F)(F)F)cc3s2)nc2cc(C(=O)NCC(=O)N3CCC(CO)CC3)ccc21` [Example 441, 1-Methyl-2-(6-trifluoromethoxy-benzothiazol-2-ylamino)-1H-benzoimidazole-5-carboxylic acid [2-(4-hydroxymethyl-piperidin-1-yl)-2-oxo-ethyl]-amide], the fold induction at 5 µM was 73.6.

In turn, `CNCCn1c(Nc2nc3ccc(Cl)cc3s2)nc2cc(C(=O)NCC(=O)N(C)C)ccc21` [Example 367, 2-(6-Chloro-benzothiazol-2-ylamino)-1-(2-methylamino-ethyl)-1H-benzoimidazole-5-carboxylic acid dimethylcarbamoylmethyl-amide hydrochloride] came in with a fold induction at 5 µM of 25.4.

Turning to `CNC(=O)c1ccc2c(c1)nc(Nc1nc3ccc(OC(F)(F)F)cc3s1)n2CCN` [Example 173, 1-(2-Amino-ethyl)-2-(6-trifluoromethoxy-benzothiazol-2-ylamino)-1H-benzoimidazole-5-carboxylic acid methylamide hydrochloride], the fold induction at 5 µM was determined as 21.4.

Regarding `CC(C)Cn1c(Nc2nc3ccc(OC(F)(F)F)cc3s2)nc2cc(C(=O)O)ccc21` [Example 163, 1-Isobutyl-2-(6-trifluoromethoxy-benzothiazol-2-ylamino)-1H-benzoimidazole-5-carboxylic acid], the fold induction at 5 µM stood at 26.3.

As to `CNC(=O)c1ccc2c(c1)nc(Nc1nc3ccc(C(F)(F)F)cc3s1)n2C` [Example 84, 1-Methyl-2-(6-trifluoromethyl-benzothiazol-2-ylamino)-1H-benzoimidazole-5-carboxylic acid methylamide], the fold induction at 5 µM stood at 19.

`Cn1c(Nc2nc3ccc(OC(F)(F)F)cc3s2)nc2cc(C(=O)NCCNC(=O)CO)ccc21` [Example 325, 1-Methyl-2-(6-trifluoromethoxy-benzothiazol-2-ylamino)-1H-benzoimidazole-5-carboxylic acid [2-(2-hydroxy-acetylamino)-ethyl]-amide] yielded a fold induction at 5 µM of 32.4.

As to `Cn1c(Nc2nc3ccc(C(F)(F)F)cc3s2)nc2cc(C(=O)NCCOCCF)ccc21` [Example 257, 1-Methyl-2-(6-trifluoromethyl-benzothiazol-2-ylamino)-1H-benzoimidazole-5-carboxylic acid [2-(2-fluoro-ethoxy)-ethyl]-amide], the fold induction at 5 µM was 21.9.

Turning to `CCNC(=O)c1cnc2c(c1)nc(Nc1nc3ccc(OC(F)(F)F)cc3s1)n2C` [Example 76, 3-Methyl-2-(6-trifluoromethoxy-benzothiazol-2-ylamino)-3H-imidazo[4,5-b]pyridine-6-carboxylic acid ethylamide], the fold induction at 5 µM came to 22.5.

The values are drawn from patent US8759535B2, “Substituted fused imidazole derivatives, pharmaceutical compositions, and methods of use thereof” (High Point Pharmaceuticals, LLC, priority 2010, dated 2014).
